pIC50: −log10 of the molar value. “And” between values parts separate entries of the source, which are not always exact repeats. Identical values can stand only once. Like-named read-outs stand apart in the source and are kept apart here.
Legend:
HSV-1/L2 = test: CPE inhibition assay, HSV-1 reference strain L2 in Vero E6 cells; assay type: cell-based, herpes simplex virus 1; settings: for IC95: Human alphaherpesvirus 1, Vero C1008, CPE inhibited almost completely
Description: (§1) Vero 6 cells for determining cytotoxicity and antiviral activity were cultured according to the method described in [29].
Vero E6 cells were then infected with the infection material at an MOI of 0.01 PFU/cell; incubation was performed at 37 °C in an atmosphere of 5% CO2. […] The duration of incubation was 48 h and 72 h for MOI 0.01 PFU/mL, respectively. […] The results of three independent experiments are shown in Table S1 (Supplementary Materials).

HSV-1/L2/R^ACV = test: microbe, parasite or virus in culture; assay type: cell-based, herpes simplex virus 1; settings: for pIC50: Human alphaherpesvirus 1, Vero C1008, read-out: IC50 HSV-1/L2/R^ACV, CPE inhibition by 50%, Vero E6, MOI 0.01, acyclovir-resistant TK-negative strain; for IC95: Human alphaherpesvirus 1, Vero C1008, read-out: IC95 HSV-1/L2/R^ACV, CPE inhibited almost completely, Vero E6, MOI 0.01, acyclovir-resistant strain
Description: as §1
In 96-well plastic plates with the generated cell monolayer, serial dilutions of the compounds were prepared at […] 1:2 with the maintenance medium (Eagle′s medium and medium 199, mixed in a ratio 1:1). Vero E6 cells were then infected with the infection material at an MOI of 0.01 PFU/cell; incubation was performed at 37 °C in an atmosphere of 5% CO2. Cytotoxicity was determined quantitatively by the trypan blue exclusion method and expressed as CD50: the concentration of the drug at which 50% of cells die after 72 h. […] The duration of incubation was 48 h and 72 h for MOI […], respectively. […] An antiviral activity was assessed by determining ID50 and ID95 (concentrations of compounds that inhibit the development of virus-induced CPE as compared with the control by 50% and almost completely). […] The results of three independent experiments are shown in Table S1 (Supplementary Materials).

Vero E6 cells = test: Cytotoxicity, trypan blue exclusion; assay type: cell-based; settings: for CD50: 50% cytotoxic concentration, Vero E6 cells, 72 h; for MTC (maximal tolerable concentration): highest concentration that does not cause death of Vero E6 cells
HCMV = settings: cited from earlier work
HSV-1 = settings: cited from earlier work
[1] = Human alphaherpesvirus 1, Vero C1008, read-out: IC50 HSV-1/L2, CPE inhibition by 50%, Vero E6, MOI 0.01
[2] = read-out: IC50 HSV-1/L2, CPE inhibition by 50%, Vero E6, MOI 0.01

`Fc1cc(F)c2[nH]cnc2c1` [Compound 3, 4,6-Difluorobenzimidazole] gave an IC95 (HSV-1/L2; Vero E6, MOI 0.01) of 1620 µM, a pIC50 (HSV-1/L2; [1]) of 3.09 and a pIC50 (HSV-1/L2; [2]) of 3.09. For the same compound, the pIC50 (HSV-1/L2/R^ACV) was 3.09, the CD50 (Vero E6 cells) was 2489.32 ± 92.46 µM and the “MTC (maximal tolerable concentration)” value (Vero E6 cells) was 811.53 µM.

In the case of `OC[C@@H]1C[C@@H](O)[C@H](n2cnc3cc(F)c(F)cc32)O1` [Compound 10, 5,6-Difluoro-1-(β-D-3′-deoxyribofuranosyl)benzimidazole], the IC95 (HSV-1/L2; Vero E6, MOI 0.01) was 985 µM, the pIC50 (HSV-1/L2; [1]) was 3.61 and the pIC50 (HSV-1/L2; [2]) was 3.61. The pIC50 (HSV-1/L2/R^ACV) was 2.83, the IC95 (HSV-1/L2/R^ACV) was at least 1970 µM and the CD50 (Vero E6 cells) was 2901.81 ± 60.28 µM. For the same compound, the “MTC (maximal tolerable concentration)” value (Vero E6 cells) was 1970.86 µM.

In the case of `c1ccc2[nH]cnc2c1` [Compound 1, Benzimidazole], the IC95 (HSV-1/L2; Vero E6, MOI 0.01) was 4240 µM, the pIC50 (HSV-1/L2; [1]) was 2.98 and the pIC50 (HSV-1/L2; [2]) was 2.98. For the same compound, the pIC50 (HSV-1/L2/R^ACV) was 2.98, the CD50 (Vero E6 cells) was 6313.85 ± 167.47 µM and the “MTC (maximal tolerable concentration)” value (Vero E6 cells) was 4235.49 µM.

Work on `Nc1nc2cc(F)c(F)cc2n1[C@@H]1O[C@H](CO)C[C@H]1O` [Compound 16, 2-Amino-5,6-difluoro-1-(β-D-3′-deoxyribofuranosyl)benzimidazole] yielded an IC95 (HSV-1/L2; Vero E6, MOI 0.01) of over 1990 µM, a pIC50 (HSV-1/L2; [1]) of 3.00 and a pIC50 (HSV-1/L2; [2]) of 3.00. It also gave a pIC50 (HSV-1/L2/R^ACV) of 3.00, an IC95 (HSV-1/L2/R^ACV) of over 1990 µM and a CD50 (Vero E6 cells) of 3315.58 ± 141.99 µM. For the same compound, the “MTC (maximal tolerable concentration)” value (Vero E6 cells) was 1991.35 µM.

In the case of `COc1c(F)cc2nc[nH]c2c1F` [Compound 5, 4,6-Difluoro-5-methoxybenzimidazole], the IC95 (HSV-1/L2; Vero E6, MOI 0.01) was 2720 µM, the pIC50 (HSV-1/L2; [1]) was 2.99 and the pIC50 (HSV-1/L2/R^ACV) was 2.87. For the same compound, the CD50 (Vero E6 cells) was 2909.48 ± 123.18 µM and the “MTC (maximal tolerable concentration)” value (Vero E6 cells) was 1358.40 µM.

For `Nc1nc2cc(F)c(F)cc2[nH]1` [Compound 8, 2-Amino-5,6-difluorobenzimidazole], the IC95 (HSV-1/L2; Vero E6, MOI 0.01) was 739 µM, the pIC50 (HSV-1/L2; [1]) was 3.43 and the pIC50 (HSV-1/L2; [2]) was 3.43. The pIC50 (HSV-1/L2/R^ACV) was 3.43, the CD50 (Vero E6 cells) was 1659.39 ± 60.16 µM and the “MTC (maximal tolerable concentration)” value (Vero E6 cells) was 739.43 µM.

Work on `OC[C@@H]1C[C@@H](O)[C@H](n2cnc3ccccc32)O1` [Compound 9, 1-(β-D-3′-Deoxyribofuranosyl)benzimidazole] yielded an IC95 (HSV-1/L2; Vero E6, MOI 0.01) of 2510 µM, a pIC50 (HSV-1/L2; [1]) of 3.20 and a pIC50 (HSV-1/L2; [2]) of 3.20. The pIC50 (HSV-1/L2/R^ACV) was 2.90, the IC95 (HSV-1/L2/R^ACV) was 5020 µM and the CD50 (Vero E6 cells) was over 5019.25 µM. For the same compound, the “MTC (maximal tolerable concentration)” value (Vero E6 cells) was 2505.13 µM.

In the case of `NC(=O)c1ncn([C@@H]2O[C@H](CO)[C@@H](O)[C@H]2O)n1` [ribavirin, reference compound], the IC95 (HSV-1/L2; Vero E6, MOI 0.01) was 2050 µM, the pIC50 (HSV-1/L2/R^ACV) was 3.29 and the “MTC (maximal tolerable concentration)” value (Vero E6 cells) was 4095.00 µM.

`COc1cc2nc(N)[nH]c2cc1F` [Compound 7, 2-amino-5-fluoro-6-methoxybenzimidazole] gave an IC95 (HSV-1/L2; Vero E6, MOI 0.01) of 690 µM, a pIC50 (HSV-1/L2; [1]) of 3.76 and a pIC50 (HSV-1/L2; [2]) of 3.76. The pIC50 (HSV-1/L2/R^ACV) was 3.76, the CD50 (Vero E6 cells) was 2165.79 ± 33.74 µM and the “MTC (maximal tolerable concentration)” value (Vero E6 cells) was 1380.68 µM.

Compound `COc1c(F)cc2c(ncn2[C@@H]2O[C@H](CO)C[C@H]2O)c1F` [Compound 13, 4,6-Difluoro-5-metoxy-1-(β-D-3′-deoxyribofuranosyl)benzimidazole] has an IC95 (HSV-1/L2; Vero E6, MOI 0.01) of 3330 µM, a pIC50 (HSV-1/L2; [1]) of 2.52 and a pIC50 (HSV-1/L2/R^ACV) of 2.52. For the same compound, the “MTC (maximal tolerable concentration)” value (Vero E6 cells) was 1665.22 µM.

`Fc1cc2nc[nH]c2cc1F` [Compound 2, 5,6-Difluorobenzimidazole] gave an IC95 (HSV-1/L2; Vero E6, MOI 0.01) of 1620 µM, a pIC50 (HSV-1/L2; [1]) of 3.69 and a pIC50 (HSV-1/L2; [2]) of 3.69. For the same compound, the pIC50 (HSV-1/L2/R^ACV) was 3.39, the CD50 (Vero E6 cells) was 2433.81 ± 37.72 µM and the “MTC (maximal tolerable concentration)” value (Vero E6 cells) was 1623.06 µM.

In the case of `OC[C@H]1O[C@@H](n2cnc3cc(Cl)c(Cl)cc32)[C@H](O)[C@@H]1O` [DRB, 5,6-dichloro-1-(β-D-ribofuranosyl)benzimidazole], the pIC50 (HCMV) is given as 4.38 and the pIC50 (HSV-1) is given as 4.52.

For `Nc1nc2c(ncn2COCCO)c(=O)[nH]1` [acyclovir, reference compound], the IC50 (HSV-1/L2/R^ACV; Human alphaherpesvirus 1, Vero C1008, virus variant profoundly resistant to acyclovir) was > 100 µg/mL and > 444 µM.

Compound `Fc1cc2nc[nH]c2c(F)c1F` [Compound 4, 4,5,6-Trifluorobenzimidazole] has an IC95 (HSV-1/L2; Vero E6, MOI 0.01) of 1450 µM, a pIC50 (HSV-1/L2; [1]) of 3.44 and a pIC50 (HSV-1/L2; [2]) of 3.44. The pIC50 (HSV-1/L2/R^ACV) was 3.44, the CD50 (Vero E6 cells) was 2179.98 ± 27.03 µM and the “MTC (maximal tolerable concentration)” value (Vero E6 cells) was 1453.32 µM.

Compound `OC[C@@H]1C[C@@H](O)[C@H](n2cnc3c(F)c(F)c(F)cc32)O1` [Compound 12a, 4,5,6-trifluoro-1-(β-D-3′-deoxyribofuranosyl)benzimidazole] has an IC95 (HSV-1/L2; Vero E6, MOI 0.01) of 1000 µM, a pIC50 (HSV-1/L2; [1]) of 3.60 and a pIC50 (HSV-1/L2; [2]) of 3.60. The pIC50 (HSV-1/L2/R^ACV) was 3.31, the IC95 (HSV-1/L2/R^ACV) was 2000 µM and the CD50 (Vero E6 cells) was at least 3999.31 µM. The “MTC (maximal tolerable concentration)” value (Vero E6 cells) was 1999.65 µM.

With `Nc1nc2ccccc2[nH]1` [Compound 6, 2-aminobenzimidazole] the IC95 (HSV-1/L2; Vero E6, MOI 0.01) was 939 µM, the pIC50 (HSV-1/L2; [1]) was 3.33 and the pIC50 (HSV-1/L2; [2]) was 3.33. For the same compound, the pIC50 (HSV-1/L2/R^ACV) was 3.15, the CD50 (Vero E6 cells) was 1422.89 ± 18.04 µM and the “MTC (maximal tolerable concentration)” value (Vero E6 cells) was 939.43 µM.

For `OC[C@@H]1C[C@@H](O)[C@H](n2cnc3c(F)cc(F)cc32)O1` [Compound 11a, 4,6-difluoro-1-(β-D-3′-deoxyribofuranosyl)benzimidazole], the IC95 (HSV-1/L2; Vero E6, MOI 0.01) was 1000 µM, the pIC50 (HSV-1/L2; [1]) was 3.60 and the pIC50 (HSV-1/L2; [2]) was 3.60. The pIC50 (HSV-1/L2/R^ACV) was over 2.70, the IC95 (HSV-1/L2/R^ACV) was 2010 µM and the CD50 (Vero E6 cells) was over 2007.37 µM. The “MTC (maximal tolerable concentration)” value (Vero E6 cells) was 1003.68 µM.

Reference: article PMC12293048, “New Benzimidazole 3′-Deoxynucleosides: Synthesis and Antiherpes Virus Properties” (Biomolecules, 2025)
